The results in this text go back to patent US8431704B2, “Quinoline or isoquinoline substituted P2X7 antagonists” (Janssen Pharmaceutica NV, priority 2008, dated 2013).

The target of the experiment is T1, hP2X7 (Homo sapiens, UniProt Q99572).
T1 construct: expressed in transfected cells; host or cells: 1321N1 astrocytoma cells
T1 sequence (Q99572 1-595): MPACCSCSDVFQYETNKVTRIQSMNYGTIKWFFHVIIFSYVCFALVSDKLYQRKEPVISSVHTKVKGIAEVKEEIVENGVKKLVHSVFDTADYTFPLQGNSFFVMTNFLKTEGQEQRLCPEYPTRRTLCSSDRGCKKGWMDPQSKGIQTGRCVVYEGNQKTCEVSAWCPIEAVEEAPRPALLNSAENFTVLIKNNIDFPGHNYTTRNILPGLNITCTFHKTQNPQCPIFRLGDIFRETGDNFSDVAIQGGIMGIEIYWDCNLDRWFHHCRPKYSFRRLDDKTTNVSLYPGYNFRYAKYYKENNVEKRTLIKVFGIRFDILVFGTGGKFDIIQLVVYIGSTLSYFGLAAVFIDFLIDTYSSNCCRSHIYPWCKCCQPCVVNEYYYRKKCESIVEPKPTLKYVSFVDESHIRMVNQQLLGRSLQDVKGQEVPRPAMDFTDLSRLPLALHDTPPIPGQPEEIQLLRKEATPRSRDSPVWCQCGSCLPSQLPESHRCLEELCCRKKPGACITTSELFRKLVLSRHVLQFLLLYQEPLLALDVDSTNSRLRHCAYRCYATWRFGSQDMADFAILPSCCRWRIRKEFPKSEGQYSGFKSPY
Kind of experiment: P2X7 antagonism: ligand-induced Ca2+ flux in 1321N1 astrocytoma cells overexpressing hP2X7. The format is cell-based. The note with it: pIC50 = -log(IC50), read-out: hP2RX7pIC50 (mean pIC50 values) (converted). The procedure: Extracellular binding of ATP to P2X7 that is expressed in the cell-membrane opens the ligand gated cation channel and allows Ca^2+ entry into the cell. This ligand-induced Ca^2+ flux was measured in 1321N1 astrocytoma cells overexpressing hP2X7 for the compounds of the present invention.
The calcium assay kit used (Molecular Devices, R8090), provides a Ca^2+ sensitive dye together with a quenching dye. However, no specifications are given by the manufacturer. The kit most likely consists of a membrane permeable acetoxymethyl (AM) ester of a fluorescent Ca^2+ indicator, such as fluo-4 or fluo-3. Upon cellular uptake, the AM esters get cleaved by esterases, liberating the Ca^2+-sensitive dye which can then bind calcium. The dyes have an absorption spectrum compatible with excitation at 488 nm by argon laser sources and a large fluorescence intensity increase in response to Ca^2+ binding without an accompanying spectral shift. Emission wavelength is in the range of 510-560 nm.
The fluorescence, and thus the changes in intracellular [Ca^2+] in the 1321N1 cells was monitored in time before and after addition of the agonist. The effect of the antagonist was measured as % control and as IC50.
With `O=C(NCC(c1cnc(C(F)(F)F)nc1)N1CCOCC1)c1cccc2nc(N3CCC(F)(F)CC3)ccc12` (stereo not shown) [Compound 177], the IC50 is 47.9 nM.

For the molecule `O=C(NCC(c1cnc(C(F)(F)F)nc1)N1CCOCC1)c1cccc2nc(N3CCCOCC3)ccc12` (stereo not shown) [Compound 178], the IC50 is 91.2 nM.

As to `O=C(NCC(c1cnc(C(F)(F)F)nc1)N1CCOCC1)c1cccc2nc(NC3CCCC3)ccc12` (stereo not shown) [Compound 179], the IC50 is 89.1 nM.

Regarding `CC(C)CNc1ccc2c(C(=O)NCC(c3cnc(C(F)(F)F)nc3)N3CCOCC3)cccc2n1` (stereo not shown) [Compound 180], the IC50 is 67.6 nM.

Take `CC(C)N1CCN(c2ccc3c(C(=O)NCC(c4cnc(C(F)(F)F)nc4)N4CCOCC4)cccc3n2)CC1` (stereo not shown) [Compound 181]: the IC50 is 93.3 nM.

Consider `CC(C)OCCCNc1ccc2c(C(=O)NCC(c3cnc(C(F)(F)F)nc3)N3CCOCC3)cccc2n1` (stereo not shown) [Compound 182], for which the IC50 was 112 nM.

With `O=C(NCC(c1cnc(C(F)(F)F)nc1)N1CCOCC1)c1cccc2nc(NC3CCC3)ccc12` (stereo not shown) [Compound 183], the IC50 is 53.7 nM.

For the molecule `CCCNc1ccc2c(C(=O)NCC(c3cnc(C(F)(F)F)nc3)N3CCOCC3)cccc2n1` (stereo not shown) [Compound 184], the IC50 is 61.7 nM.

Take `COCCCNc1ccc2c(C(=O)NCC(c3cnc(C(F)(F)F)nc3)N3CCOCC3)cccc2n1` (stereo not shown) [Compound 185]: the IC50 was 129 nM.

As to `Nc1ncc(C(CNC(=O)c2cccc3nc(N4CCOCC4)ccc23)N2CCC(F)(F)CC2)cn1` (stereo not shown) [Compound 187], the IC50 is 87.1 nM.

For the molecule `CN(C)c1ncc(C(CNC(=O)c2cccc3nc(N4CCOCC4)ccc23)N2CCC(F)(F)CC2)cn1` (stereo not shown) [Compound 188], the IC50 was 69.2 nM.

Consider `O=C(NCC(c1cnc(NC2CC2)nc1)N1CCC(F)(F)CC1)c1cccc2nc(N3CCOCC3)ccc12` (stereo not shown) [Compound 189], for which the IC50 is 110 nM.

For `O=C(NCC(c1cnc(N2CCCC2)nc1)N1CCC(F)(F)CC1)c1cccc2nc(NC3CC3)ccc12` (stereo not shown) [Compound 190], the IC50 was 77.6 nM.

Regarding `O=C(NCC(c1cnc(-c2ccccc2)nc1)N1CCC(F)(F)CC1)c1cccc2nc(N3CCOCC3)ccc12` (stereo not shown) [Compound 191], the IC50 is 64.6 nM.

As for `COc1ncc(C(CNC(=O)c2cccc3nc(NC4CC4)ccc23)N2CCC(F)(F)CC2)cn1` (stereo not shown) [Compound 192], the IC50 was 55 nM.

As to `O=C(NCC(c1cnc(-c2ccccc2)nc1)N1CCC(F)(F)CC1)c1cccc2nc(NC3CC3)ccc12` (stereo not shown) [Compound 193], the IC50 was 61.7 nM.

Regarding `Nc1ncc(C(CNC(=O)c2cccc3nc(NC4CC4)ccc23)N2CCC(F)(F)CC2)cn1` (stereo not shown) [Compound 194], the IC50 was 178 nM.

`CN(C)c1ncc(C(CNC(=O)c2cccc3nc(NC4CC4)ccc23)N2CCC(F)(F)CC2)cn1` (stereo not shown) [Compound 195]: the IC50 was 72.4 nM.

As for `CC(C)C1CCN(c2ccc3c(C(=O)NCC(c4cnc(C(F)(F)F)nc4)N4CCOCC4)cccc3n2)CC1` (stereo not shown) [Compound 196], the IC50 was 195 nM.

On to `O=C(NCC(c1cnc(C(F)(F)F)nc1)N1CCOCC1)c1cccc2nc(N3CCN(CCO)CC3)ccc12` (stereo not shown) [Compound 197], for which the IC50 was 120 nM.

Take `CN1CCN(c2ccc3c(C(=O)NCC(c4cnc(C(F)(F)F)nc4)N4CCOCC4)cccc3n2)CC1` (stereo not shown) [Compound 198]: the IC50 was 77.6 nM.

For `CC(C)N1CCN(c2ccc3c(C(=O)NCC(c4cnc(N(C)C)nc4)N4CCOCC4)cccc3n2)CC1` (stereo not shown) [Compound 199], the IC50 was 407 nM.

With `COc1ncc(C(CNC(=O)c2cccc3nc(N4CCN(C(C)C)CC4)ccc23)N2CCC(F)(F)CC2)cn1` (stereo not shown) [Compound 200], the IC50 is 51.3 nM.

As for `CC(C)N1CCN(c2ccc3c(C(=O)NCC(c4cnc(-c5ccccc5)nc4)N4CCC(F)(F)CC4)cccc3n2)CC1` (stereo not shown) [Compound 201], the IC50 is 115 nM.

Turning to `O=C(NCC(c1cnc(N2CCNCC2)nc1)N1CCC(F)(F)CC1)c1cccc2nc(NC3CC3)ccc12` (stereo not shown) [Compound 202], the IC50 is 115 nM.

As for `CC(C)N1CCN(c2ccc3c(C(=O)NCC(c4cnc(N5CCOCC5)nc4)N4CCC(F)(F)CC4)cccc3n2)CC1` (stereo not shown) [Compound 203], the IC50 is 67.6 nM.

In the case of `O=C(NCC(c1cnc(OC2CCC2)nc1)N1CCC(F)(F)CC1)c1cccc2nc(N3CCCC3)ccc12` (stereo not shown) [Compound 204], the IC50 is 47.9 nM.

As for `O=C(NCC(c1cnc(N2CCOCC2)nc1)N1CCC(F)(F)CC1)c1cccc2nc(NC3CC3)ccc12` (stereo not shown) [Compound 205], the IC50 was 64.6 nM.

Consider `CN(C)c1ncc(C(CNC(=O)c2cccc3nc(N4CCCC4)ccc23)N2CCC(F)(F)CC2)cn1` (stereo not shown) [Compound 206], for which the IC50 is 105 nM.

As to `CCc1ncc(C(CNC(=O)c2cccc3nc(NC4CC4)ccc23)N2CCOCC2)cn1` (stereo not shown) [Compound 207], the IC50 was 138 nM.

As for `O=C(NCC(c1cncnc1)N1CCC(F)(F)CC1)c1cccc2nc(N3CCCC3)ccc12` (stereo not shown) [Compound 208], the IC50 is 45.7 nM.

Consider `CC(C)N1CCN(c2ccc3c(C(=O)NCC(c4cnc(N(C)C)nc4)N4CCC(F)(F)CC4)cccc3n2)CC1` (stereo not shown) [Compound 209], for which the IC50 is 117 nM.

On to `CC(C)c1ncc(C(CNC(=O)c2cccc3nc(N4CCCC4)ccc23)N2CCOCC2)cn1` (stereo not shown) [Compound 210], for which the IC50 is 372 nM.

As for `O=C(NCC(c1cncnc1)N1CCC(F)(F)CC1)c1cccc2nc(NCC3CC3)ccc12` (stereo not shown) [Compound 211], the IC50 is 79.4 nM.

For `CCOc1ncc(C(CNC(=O)c2cccc3nc(N4CCCC4)ccc23)N2CCC(F)(F)CC2)cn1` (stereo not shown) [Compound 212], the IC50 is 41.7 nM.

On to `CC(C)N1CCN(c2ccc3c(C(=O)NCC(c4cnc(C5CCCC5)nc4)N4CCC(F)(F)CC4)cccc3n2)CC1` (stereo not shown) [Compound 213], for which the IC50 was 100 nM.

`O=C(NCC(c1cnc(OC2CCC2)nc1)N1CCC(F)(F)CC1)c1cccc2nc(NC3CC3)ccc12` (stereo not shown) [Compound 214]: the IC50 is 33.9 nM.

With `CC(C)N1CCN(c2ccc3c(C(=O)NCC(c4cnc(N5CCCC5)nc4)N4CCC(F)(F)CC4)cccc3n2)CC1` (stereo not shown) [Compound 215], the IC50 is 174 nM.

As for `O=C(NCC(c1cnc(NC2CC2)nc1)N1CCC(F)(F)CC1)c1cccc2nc(N3CCCC3)ccc12` (stereo not shown) [Compound 216], the IC50 was 100 nM.

As to `CCc1ncc(C(CNC(=O)c2cccc3nc(NCC4CC4)ccc23)N2CCC(F)(F)CC2)cn1` (stereo not shown) [Compound 217], the IC50 is 47.9 nM.

Turning to `CN(C)c1ncc(C(CNC(=O)c2cccc3nc(N4CCCC4)ccc23)N2CCOCC2)cn1` (stereo not shown) [Compound 218], the IC50 is 316 nM.

`O=C(NCC(c1cnc(N2CCCC2)nc1)N1CCOCC1)c1cccc2nc(N3CCCC3)ccc12` (stereo not shown) [Compound 219]: the IC50 was 126 nM.

On to `CCc1ncc(C(CNC(=O)c2cccc3nc(N4CCOCC4)ccc23)N2CCC(F)(F)CC2)cn1` (stereo not shown) [Compound 220], for which the IC50 was 83.2 nM.

For the molecule `CCc1ncc(C(CNC(=O)c2cccc3nc(NC4CC4)ccc23)N2CCC(F)(F)CC2)cn1` (stereo not shown) [Compound 221], the IC50 is 67.6 nM.

In the case of `CC(=O)N1CCN(c2ncc(C(CNC(=O)c3cccc4nc(N5CCCC5)ccc34)N3CCC(F)(F)CC3)cn2)CC1` (stereo not shown) [Compound 222], the IC50 is 66.1 nM.

Regarding `O=C(NCC(c1cnc(N2CCNCC2)nc1)N1CCC(F)(F)CC1)c1cccc2nc(NCC3CC3)ccc12` (stereo not shown) [Compound 223], the IC50 is 195 nM.

Regarding `O=C(NCC(c1cnc(N2CCOCC2)nc1)N1CCC(F)(F)CC1)c1cccc2nc(N3CCCC3)ccc12` (stereo not shown) [Compound 224], the IC50 is 115 nM.

Take `O=C(NCC(c1cnc(N2CCCC2)nc1)N1CCC(F)(F)CC1)c1cccc2nc(N3CCCC3)ccc12` (stereo not shown) [Compound 225]: the IC50 is 102 nM.

Regarding `Nc1ncc(C(CNC(=O)c2cccc3nc(N4CCCC4)ccc23)N2CCC(F)(F)CC2)cn1` (stereo not shown) [Compound 226], the IC50 was 162 nM.

Regarding `CC(C)Oc1ncc(C(CNC(=O)c2cccc3nc(NCC4CC4)ccc23)N2CCOCC2)cn1` (stereo not shown) [Compound 227], the IC50 was 33.1 nM.

In the case of `CCOc1ncc(C(CNC(=O)c2cccc3nc(N4CCOCC4)ccc23)N2CCOCC2)cn1` (stereo not shown) [Compound 228], the IC50 is 51.3 nM.

With `CCOc1ncc(C(CNC(=O)c2cccc3nc(NC4CC4)ccc23)N2CCOCC2)cn1` (stereo not shown) [Compound 229], the IC50 is 69.2 nM.

As to `CC(C)c1ncc(C(CNC(=O)c2cccc3nc(N4CCOCC4)ccc23)N2CCOCC2)cn1` (stereo not shown) [Compound 230], the IC50 was 141 nM.

As for `CC(C)c1ncc(C(CNC(=O)c2cccc3nc(NC4CC4)ccc23)N2CCOCC2)cn1` (stereo not shown) [Compound 231], the IC50 is 115 nM.

With `CN(C)c1ncc(C(CNC(=O)c2cccc3nc(N4CCOCC4)ccc23)N2CCOCC2)cn1` (stereo not shown) [Compound 232], the IC50 is 170 nM.
